Measured values taken from patent US10881110B2, “Herbicidal compositions comprising isoxazolo[5,4-b]pyridines” (BASF SE, priority 2014, dated 2021).

What was measured:
Experiment in all cases: greenhouse post-emergence herbicidal test
APESV = format: in vivo, Apera spica-venti; set-up: key to herbicidal activity against APESV found: rating on a scale from 0 to 100; conditions: post emergence
Description: (§1) The culture containers used were plastic pots containing medium loamy sand with approximately 4.6% of humus and 69.9% sand as substrate. The seeds of the test plants were sown separately for each species.
(§2) For the post-emergence treatment, the test plants were grown to a plant height of from 1 to 15 cm, depending on the plant habit, and only then treated with the active compounds which had been suspended or emulsified in water. To this end, the test plants were either sown directly, and grown in the same containers, or they were first grown separately as seedlings and transplanted into the test containers a few days prior to treatment.
(§3) Depending on the species, the plants were kept at 10-25° C. and 20-35° C., respectively.
(§4) The test period extended over 1 to 3 weeks. During this time, the plants were tended and their response to the individual treatments was evaluated 20 days after treatment except mentioned otherwise.
(§5) Evaluation was carried out using a scale from 0 to 100. 100 means no emergence of the plants, or complete destruction of at least the above-ground parts, and 0 means no damage or normal course of growth.
(§6) The respective stated components A and B, and, if appropriate, C, were formulated as a 10% by weight strength emulsion concentrate and, with addition of the amount of solvent system, introduced into the spray liquor used for applying the active compound. In the examples, the solvent used was water.
(§7) In the examples below, using the method of S. R. Colby (1967) “Calculating synergistic and antagonistic responses of herbicide combinations”, Weeds 15, p. 22 ff., the value E, which is expected if the activity of the individual active compounds is only additive, was calculated. E=X+Y−(X·Y/100)

ERICA = format: in vivo, Conyza canadensis; set-up: key to herbicidal activity against ERICA found: rating on a scale from 0 to 100; conditions: post emergence
Description: as §1, §2, §3, §4, §5, §6, §7

GERDI = format: in vivo, Geranium dissectum; set-up: key to herbicidal activity against GERDI found: rating on a scale from 0 to 100; conditions: post emergence
Description: as §1, §2, §3, §4, §5, §6, §7

ALOMY = format: in vivo, Alopecurus myosuroides; set-up: key to herbicidal activity against ALOMY found: rating on a scale from 0 to 100; conditions: post emergence
Description: as §1, §2, §3, §4, §5, §6, §7

ABUTH = format: in vivo, Abutilon theophrast; set-up: key to herbicidal activity against ABUTH found: rating on a scale from 0 to 100; conditions: post emergence
Description: as §1, §2, §3, §4, §5, §6, §7

VIOAR = format: in vivo, Viola arvensis; set-up: key to herbicidal activity against VIOAR found / herbicidal activity against VIOLA found: rating on a scale from 0 to 100; conditions: post emergence
Description: as §1, §2, §3, §4, §5, §6, §7

POLCO = format: in vivo, Polygonum convolvulus; conditions: post emergence
Description: as §1, §2, §3, §4, §5, §6, §7

PAPRH = format: in vivo, Papaver rhoeas; set-up: key: rating on a scale from 0 to 100
Description: as §1, §2, §3, §4, §5, §6, §7

IPOHE = format: in vivo, Ipomoea hederacea; conditions: Ipomoea hederacea, post-emergence, 480 h, B.97 alone 750 g/ha a.i., post emergence; read-out: herbicidal activity against IPOHE found
Description: as §1, §2, §3, §4, §5, §6, §7

GALAP = format: in vivo, Galium aparine; set-up: key to herbicidal activity against GALAP found: rating on a scale from 0 to 100; conditions: post emergence
Description: as §1, §2, §3, §4, §5, §6, §7

MATCH = format: in vivo, Matricaria recutita; set-up: key to herbicidal activity against MATCH found: rating on a scale from 0 to 100; conditions: post emergence
Description: as §1, §2, §3, §4, §5, §6, §7

KCHSC = format: in vivo, Kochia scoparia; conditions: post emergence
Description: as §1, §2, §3, §4, §5, §6, §7

[1] = g/ha a.i.: I.1 62.5, B.52 2.5, mixture 62.5+2.5
[2] = g/ha a.i.: I.1 125, B.52 2.5, mixture 125+2.5
[3] = g/ha a.i.: I.1 31.25, B.52 2.5, mixture 31.25+2.5
[4] = g/ha a.i.: I.1 31.25, B.52 5, mixture 31.25+5

## COc1cnc(OC)n2nc(NS(=O)(=O)c3c(OCC(F)F)cccc3C(F)(F)F)nc12 [B.52, penoxsulam]
APESV; [1]
  herbicidal activity against APESV found: 55
APESV; [2]
  herbicidal activity against APESV found: 55
ERICA; [3]
  herbicidal activity against ERICA found: 90
ERICA; [4]
  herbicidal activity against ERICA found: 90
ERICA; [1]
  herbicidal activity against ERICA found: 90
ERICA; g/ha a.i.: I.1 62.5, B.52 5, mixture 62.5+5
  herbicidal activity against ERICA found: 90
GERDI; [3]
  herbicidal activity against GERDI found: 80
GERDI; [1]
  herbicidal activity against GERDI found: 80
GERDI; [2]
  herbicidal activity against GERDI found: 80
ALOMY; [3]
  herbicidal activity against ALOMY found: 55
ALOMY; [1]
  herbicidal activity against ALOMY found: 55
ALOMY; [2]
  herbicidal activity against ALOMY found: 55
ABUTH; [3]
  herbicidal activity against ABUTH found: 85
ABUTH; [4]
  herbicidal activity against ABUTH found: 90
ABUTH; [1]
  herbicidal activity against ABUTH found: 85
VIOAR; [1]
  herbicidal activity against VIOAR found: 0
VIOAR; [2]
  herbicidal activity against VIOAR found: 0
VIOAR; g/ha a.i.: I.1 125, B.52 5, mixture 125+5
  herbicidal activity against VIOAR found: 60

## CCS(=O)(=O)c1nc2ccccn2c1S(=O)(=O)NC(=O)Nc1nc(OC)cc(OC)n1 [B.60, sulfosulfuron]
APESV; Apera spica-venti, post-emergence, 480 h, 3 g/ha a.i., read-out: herbicidal activity against APESV found
  pest or weed control at 3 g/ha: 60%
ERICA; Erigeron canadensis, post-emergence, 480 h, 3 g/ha a.i., read-out: herbicidal activity against ERICA found
  pest or weed control at 3 g/ha: 75%
POLCO; Fallopia convolvulus, post-emergence, 480 h, 3 g/ha a.i., read-out: herbicidal activity against POLCO found
  pest or weed control at 3 g/ha: 90%
PAPRH; 3 g/ha a.i.
  herbicidal activity against PAPRH found: 90
ALOMY; Alopecurus myosuroides, post-emergence, 480 h, 3 g/ha a.i., read-out: herbicidal activity against ALOMY found
  pest or weed control at 3 g/ha: 60%
VIOAR; Viola arvensis, post-emergence, 3 g/ha a.i., read-out: herbicidal activity against VIOAR found
  pest or weed control at 3 g/ha: 65%

## CC1(C)CON(Cc2ccccc2Cl)C1=O [B.97, clomazone]
ERICA; Erigeron canadensis, post-emergence, 480 h, B.97 alone 375 g/ha a.i., read-out: herbicidal activity against ERICA found
  pest or weed control at 375 g/ha: 50%
ERICA; Erigeron canadensis, post-emergence, 480 h, B.97 alone 750 g/ha a.i., read-out: herbicidal activity against ERICA found
  pest or weed control at 750 g/ha: 65%
IPOHE
  pest or weed control at 750 g/ha: 45%
ALOMY; Alopecurus myosuroides, post-emergence, 480 h, B.97 alone 375 g/ha a.i., read-out: herbicidal activity against ALOMY found
  pest or weed control at 375 g/ha: 45%
ALOMY; Alopecurus myosuroides, post-emergence, 480 h, B.97 alone 750 g/ha a.i., read-out: herbicidal activity against ALOMY found
  pest or weed control at 750 g/ha: 60%
VIOAR; Viola arvensis, post-emergence, B.97 alone 375 g/ha a.i., read-out: herbicidal activity against VIOAR found
  pest or weed control at 375 g/ha: 85%

## CCC/C(=N\OCC)C1=C(O)CC(C2CCCSC2)CC1=O (stereo not shown) [cycloxidim]
APESV; single active, 5 g/ha a.i.
  herbicidal activity against APESV found: 30
GALAP; single active, 5 g/ha a.i.
  herbicidal activity against GALAP found: 25
GERDI; single active, 2.5 g/ha a.i.
  herbicidal activity against GERDI found: 0
GERDI; single active, 5 g/ha a.i.
  herbicidal activity against GERDI found: 20
MATCH; single active, 5 g/ha a.i.
  herbicidal activity against MATCH found: 65
VIOAR; single active, 2.5 g/ha a.i.
  herbicidal activity against VIOAR found: 0

## CC(C)=NOCCOC(=O)[C@@H](C)Oc1ccc(Oc2cnc3cc(Cl)ccc3n2)cc1 [propaquizafop]
APESV; applied alone at 5 g/ha a.i.
  herbicidal activity against APESV found: 65
GALAP; applied alone at 5 g/ha a.i.
  herbicidal activity against GALAP found: 0
GALAP; applied alone at 10 g/ha a.i.
  herbicidal activity against GALAP found: 10
ERICA; applied alone at 5 g/ha a.i.
  herbicidal activity against ERICA found: 0
POLCO; applied alone at 5 g/ha a.i.
  herbicidal activity against POLCO found: 0
POLCO; applied alone at 10 g/ha a.i.
  herbicidal activity against POLCO found: 0
KCHSC; applied alone at 5 g/ha a.i.
  herbicidal activity against KCHSC found: 0
KCHSC; applied alone at 10 g/ha a.i.
  herbicidal activity against KCHSC found: 10
ALOMY; applied alone at 5 g/ha a.i.
  herbicidal activity against ALOMY found: 55
ALOMY; applied alone at 10 g/ha a.i.
  herbicidal activity against ALOMY found: 65
ABUTH; applied alone at 10 g/ha a.i.
  herbicidal activity against ABUTH found: 30

## CCOC(=O)[C@@H](C)Oc1ccc(Oc2cnc3cc(Cl)ccc3n2)cc1 [quizalofop-p-ethyl]
ERICA; applied alone at 7.5 g/ha a.i.
  herbicidal activity against ERICA found: 0
ERICA; applied alone at 15 g/ha a.i.
  herbicidal activity against ERICA found: 20
MATCH; applied alone at 15 g/ha a.i.
  herbicidal activity against MATCH found: 0
PAPRH; applied alone at 15 g/ha a.i.
  herbicidal activity against PAPRH found: 50
ABUTH; applied alone at 7.5 g/ha a.i.
  herbicidal activity against ABUTH found: 15
ABUTH; applied alone at 15 g/ha a.i.
  herbicidal activity against ABUTH found: 25
VIOAR; applied alone at 7.5 g/ha a.i.
  herbicidal activity against VIOAR found: 0
VIOAR; applied alone at 15 g/ha a.i.
  herbicidal activity against VIOAR found: 0
